Measurements reported in patent US4789683A, “Benzamido-derivatives” (priority 1981, dated 1988).
Like-named read-outs stand apart in the source and are kept apart here.

How the values were obtained:
[1] = experimental animals; cited from earlier work
[2] = molecular target: T1, DA receptors in the brain (Rattus norvegicus, UniProt P61169); assay: Block of apomorphine-induced stereotypies in the rat (0-3 scale); assay type: in vivo, Male Sprague-Dawley rats
T1 construct: from tissue; host or cells: brain of live male Sprague-Dawley rats (in vivo behavioural test)
T1 sequence (P61169 whole entry): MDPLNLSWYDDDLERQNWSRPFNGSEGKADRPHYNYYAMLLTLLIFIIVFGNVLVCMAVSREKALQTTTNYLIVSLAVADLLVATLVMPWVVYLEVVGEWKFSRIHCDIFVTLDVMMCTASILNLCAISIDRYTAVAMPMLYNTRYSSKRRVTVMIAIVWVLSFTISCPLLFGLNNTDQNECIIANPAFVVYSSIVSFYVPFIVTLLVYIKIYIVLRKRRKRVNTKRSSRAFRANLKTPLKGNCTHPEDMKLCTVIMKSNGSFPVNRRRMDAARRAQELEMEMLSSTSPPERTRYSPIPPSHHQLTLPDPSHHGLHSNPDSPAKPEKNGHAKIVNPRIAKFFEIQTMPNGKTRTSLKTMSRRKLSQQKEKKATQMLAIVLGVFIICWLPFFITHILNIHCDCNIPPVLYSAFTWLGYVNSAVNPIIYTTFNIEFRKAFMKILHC
Description: There are presently several techniques available to study DA receptor blockage in the brain in vico. One method is based on the ability of antipsychotic drugs to block the behavioural effects induced by the DA agonist apomorphine in the rat.
Directly after injection, the animals were placed in the cages, one in each cage. Scoring of the stereotypies were performed by two separate methods. […] The strength of the stereotype was scored on a 0-3 scale as follows:
3 Continous sniffing. Chewing, biting and licking.
In the second system the number of animals displaying hyperactivity caused by apomorphine were scored. Each group consisted of 6-8 animals. Saline controls were always run simultaneously. […] The ED50 were calculated from log dose-response curves by the method of least squares from 4-6 dose levels with 6-8 animals per dose level.

[3] = tested on: DA receptors in the brain; assay: Block of apomorphine-induced hyperactivity in the rat; assay type: in vivo, Male Sprague-Dawley rats; conditions: for Block of apomorphine ED50, hyperactivity: i.p., 60 min prior to apomorphine HCl 1 mg/kg s.c.; for potency to block apomorphine, ED50 Hyperactivity: p.o., rat
Source text: There are presently several techniques available to study DA receptor blockage in the brain in vico. One method is based on the ability of antipsychotic drugs to block the behavioural effects induced by the DA agonist apomorphine in the rat. […] The stereotypies (chewing, […], biting) appear mainly to be induced via activation of DA receptors linked to the neostriatal DA system (J. Psychiat. […] Directly after injection, the animals were placed in the cages, one in each cage. Scoring of the stereotypies were performed by two separate methods. […] The strength of the stereotype was scored on a 0-3 scale as follows: In the second system the number of animals displaying hyperactivity caused by apomorphine were scored. Each group consisted of 6-8 animals. Saline controls were always run simultaneously.

[4] = in vivo; cited from earlier work
[5] = rat, ip, 60 min prior to apomorphine HCl 1 mg/kg s.c., read-out: Block of apomorphine ED50, stereotypes
[6] = po, rat, read-out: potency to block apomorphine, ED50 Stereotypies

## CCN1CCCC1CNC(=O)c1cc(S(N)(=O)=O)ccc1OC (stereo not drawn) [Sulpiride, reference compound]
[1]
  catalepsy: weak catalepsy
[2]; p.o., rat, apomorphine stereotypies and hyperactivity, in words
  activity after oral administration: lost all activity
[2]; rat, ip, read-out: Block of apomorphine ED50, stereotypes
  ED50: 203 µmol/kg
[3]
  Block of apomorphine ED50, hyperactivity: 50 µmol/kg
[4]
  extrapyramidal side effects: weak extrapy ramidal side effects

## CCCN1CCCC1CNC(=O)c1c(OC)ccc(Br)c1O (single isomer, unassigned) [FLA 889 (-)]
[2]; [5]
  ED50: 0.75 µmol/kg
[3]
  Block of apomorphine ED50, hyperactivity: 0.27 µmol/kg

## CCN1CCCC1CNC(=O)c1c(OC)ccc(Cl)c1O (single isomer, unassigned) [FLA 814 (-)]
[2]; [6]
  ED50: 25 µmol/kg
[2]; [5]
  ED50: 1.1 µmol/kg
[3]
  Block of apomorphine ED50, hyperactivity: 0.14 µmol/kg
  potency to block apomorphine, ED50 Hyperactivity: 4.4 µmol/kg

## CCN1CCCC1CNC(=O)c1c(O)c(Br)cc(Br)c1OC (single isomer, unassigned) [FLA 659 (-)]
[2]; [6]
  ED50: 12 µmol/kg
[2]; [5]
  ED50: 2.3 µmol/kg
[3]
  Block of apomorphine ED50, hyperactivity: 0.40 µmol/kg
  potency to block apomorphine, ED50 Hyperactivity: 3.2 µmol/kg

## CCN1CCCC1CNC(=O)c1c(OC)ccc(Br)c1O (stereo not drawn) [FLA 797]
[2]; [5]
  ED50: 1.1 µmol/kg
[3]
  Block of apomorphine ED50, hyperactivity: 0.22 µmol/kg

## CCN1CCCC1CNC(=O)c1c(OC)ccc(Br)c1OC(C)=O (stereo not drawn) [FLA 903]
[2]; [5]
  ED50: 0.53 µmol/kg

## CCN1CCCC1CNC(=O)c1c(O)c(Cl)cc(Cl)c1OC (single isomer, unassigned) [FLA 870 (-)]
[2]; i.p., 60 min prior to apomorphine HCl 1 mg/kg s.c.
  Block of apomorphine ED50, stereotypes: 2.4 µmol/kg
[3]
  Block of apomorphine ED50, hyperactivity: 0.11 µmol/kg

## CCOc1ccc(Br)c(O)c1C(=O)NCC1CCCN1CC (single isomer, unassigned) [901(-)]
[2]; [6]
  ED50: 34 µmol/kg
[3]
  potency to block apomorphine, ED50 Hyperactivity: 3.0 µmol/kg

## CCN1CCCC1CNC(=O)c1c(O)ccc(Br)c1OC (stereo not drawn) [FLA 908]
[2]; [5]
  ED50: 10 µmol/kg
[3]
  Block of apomorphine ED50, hyperactivity: 1.1 µmol/kg

## CCN1CCCC1CNC(=O)c1c(OC)ccc(Br)c1O (single isomer, unassigned) [FLA 797 (-)]
[2]; [6]
  ED50: 22 µmol/kg
[2]; [5]
  ED50: 0.38 µmol/kg
[3]
  Block of apomorphine ED50, hyperactivity: 0.035 µmol/kg
  potency to block apomorphine, ED50 Hyperactivity: 3 µmol/kg

## CCOc1ccc(Br)c(O)c1C(=O)NCC1CCCN1CC (stereo not drawn) [FLA 901]
[2]; [5]
  ED50: 3.4 µmol/kg
[3]
  Block of apomorphine ED50, hyperactivity: 1.1 µmol/kg
